compound: O=C(Nc1cc(C(F)(F)F)cc(C(F)(F)F)c1)c1cc(Cl)ccc1O [IMD-0354] + Cc1nc(NC(=O)N2CCC[C@H]2C(N)=O)sc1-c1ccnc(C(C)(C)C(F)(F)F)c1 [Alpelisib] (partner 2 µM); experiment: relative viability (nuclei count vs DMSO), 5 days (fraction); higher = more cells survive; conditions: first compound 0.04 µM
Procedure, shortened: (§1)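 Nuclei were stained with Hoechst during a one-step fixation (final 0.05% Triton X-100, 1% formaldehyde, 1 ug/ml Hoechst) carried out 5 days after dosing, then counted on 4× images. The cells, lung cancer lines in 1536-well plates, had been dosed by pin tool the day after seeding with one drug alone or a fixed anchor-drug dose plus five library-drug doses (not always all listed) in √10 steps. Relative viability is the nuclei count in treated wells divided by that in vehicle wells, and each value is the median of duplicate plates.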

Cell Line	relative viability
NCI-H358	0.944
NCI-H2405	0.961
HOP-62	0.839
LU99A	0.517
BEN	1.11
HARA	0.942
HCC-78	0.366
NCI-H322M	0.717
A-427	1.04
NCI-H1734	0.944
NCI-H460	0.544
NCI-H2347	1.05
NCI-H1793	0.686
201T	1.02
NCI-H1915	0.926
HCC-827	0.888

Cell Line	relative viability
LXF-289	1.09
NCI-H23	0.802
NCI-H647	1.77
CAL-12T	1.49
NCI-H1651	1.17
EPLC-272H	1.04
NCI-H1355	1.07
NCI-H3122	0.845
NCI-H1437	1.24
NCI-H1755	0.964
HCC-15	0.861
NCI-H1944	0.694
PC-14	1.13
EKVX	0.931
LC-2-ad	0.979

same assay, conditions: first compound 0.1265 µM

Cell Line	relative viability
NCI-H358	0.746
NCI-H2405	0.835
HOP-62	1.2
LU99A	0.493
BEN	0.915
HARA	0.724
HCC-78	0.345
NCI-H322M	0.607
LCLC-97TM1	0.272
A-427	1.13
NCI-H441	0.78
NCI-H1734	0.786
NCI-H460	0.49
NCI-H2347	1.12
NCI-H1793	0.64
201T	1.08
NCI-H1915	1.05

Cell Line	relative viability
HCC-827	0.978
LXF-289	1.06
NCI-H23	0.695
NCI-H647	0.995
CAL-12T	1.31
NCI-H1651	0.987
EPLC-272H	0.893
NCI-H1355	0.692
NCI-H3122	0.917
NCI-H1437	1.07
NCI-H1755	0.562
HCC-15	0.853
NCI-H1944	0.854
PC-14	0.681
EKVX	0.992
LC-2-ad	0.835

same assay, conditions: first compound 0.4 µM

Cell Line	relative viability
NCI-H358	0.429
NCI-H2405	0.609
HOP-62	0.896
LU99A	0.345
BEN	0.498
HARA	0.503
HCC-78	0.121
NCI-H322M	0.695
LCLC-97TM1	0.245
A-427	0.815
NCI-H441	0.398
NCI-H1734	0.422
NCI-H460	0.2
NCI-H2347	0.772
NCI-H1793	0.34
201T	0.683

Cell Line	relative viability
NCI-H1915	0.854
HCC-827	0.752
LXF-289	0.711
NCI-H23	0.412
NCI-H647	0.623
CAL-12T	0.596
NCI-H1651	0.584
EPLC-272H	0.648
NCI-H1355	0.736
NCI-H3122	0.365
NCI-H1437	0.711
NCI-H1755	0.43
HCC-15	0.466
PC-14	0.587
LC-2-ad	0.397

same assay, conditions: first compound 1.265 µM

Cell Line	relative viability
NCI-H358	0.223
NCI-H2405	0.306
HOP-62	0.837
LU99A	0.247
BEN	0.442
HARA	0.141
HCC-78	0.231
NCI-H322M	0.834
LCLC-97TM1	0.207
A-427	0.69
NCI-H441	0.285
NCI-H1734	0.452
NCI-H460	0.0672
NCI-H2347	0.498
NCI-H1793	0.369
201T	1.1
NCI-H1915	0.612

Cell Line	relative viability
HCC-827	0.574
LXF-289	0.265
NCI-H23	0.435
NCI-H647	0.144
CAL-12T	0.267
NCI-H1651	0.266
EPLC-272H	0.842
NCI-H1355	0.561
NCI-H3122	0.271
NCI-H1437	0.219
NCI-H1755	0.57
HCC-15	0.272
NCI-H1944	0.902
PC-14	0.525
EKVX	0.73
LC-2-ad	0.106

same assay, conditions: first compound 4 µM

Cell Line	relative viability
NCI-H358	0.306
NCI-H2405	0.163
HOP-62	0.178
LU99A	0.195
BEN	0.245
HARA	0.169
HCC-78	0.192
NCI-H322M	0.475
LCLC-97TM1	0.113
A-427	0.104
NCI-H441	0.217
NCI-H1734	0.254
NCI-H460	0.0154
NCI-H2347	0.37
NCI-H1793	0.226
201T	0.351
NCI-H1915	0.214

Cell Line	relative viability
HCC-827	0.216
LXF-289	0.0502
NCI-H23	0.243
NCI-H647	0.173
CAL-12T	0.173
NCI-H1651	0.0691
EPLC-272H	0.374
NCI-H1355	0.222
NCI-H3122	0.163
NCI-H1437	0.239
NCI-H1755	0.222
HCC-15	0.0938
NCI-H1944	0.144
PC-14	0.219
EKVX	0.179
LC-2-ad	0.115

compound: Cc1cnc(CNC(=O)c2c(=O)c3ccc(N4CCCN(C)CC4)nc3n3c2sc2ccccc23)cn1 [CX-5461] + Cc1cc(Nc2cc(N3CCN(C)CC3)nc(Sc3ccc(NC(=O)C4CC4)cc3)n2)n[nH]1 [Tozasertib] (partner 0.1 µM); experiment: as above; conditions: first compound 0.01 µM
Procedure, shortened: as §1

Cell Line	relative viability
NCI-H358	0.108
NCI-H2405	0.746
HOP-62	0.315
LU99A	0.265
BEN	0.481
HARA	0.137
HCC-78	0.463
NCI-H322M	0.441
LCLC-97TM1	0.269
A-427	0.195
NCI-H441	0.515
NCI-H1734	0.261
NCI-H460	0.523
NCI-H2347	0.544
NCI-H1793	0.281
201T	0.921
NCI-H1915	0.426

Cell Line	relative viability
HCC-827	0.451
LXF-289	0.2
NCI-H23	0.311
NCI-H647	0.386
CAL-12T	0.361
NCI-H1651	0.7
EPLC-272H	0.22
NCI-H1355	0.579
NCI-H3122	0.389
NCI-H1437	0.404
NCI-H1755	0.49
HCC-15	0.434
NCI-H1944	0.259
PC-14	0.71
EKVX	0.387
LC-2-ad	0.377

same assay, conditions: first compound 0.03162 µM

Cell Line	relative viability
NCI-H358	0.0952
NCI-H2405	0.882
HOP-62	0.405
LU99A	0.259
BEN	0.529
HARA	0.115
HCC-78	0.391
NCI-H322M	0.508
LCLC-97TM1	0.26
A-427	0.247
NCI-H441	0.742
NCI-H1734	0.293
NCI-H460	0.584
NCI-H2347	0.563
NCI-H1793	0.332
201T	1.04
NCI-H1915	0.471

Cell Line	relative viability
HCC-827	0.376
LXF-289	0.224
NCI-H23	0.429
NCI-H647	0.335
CAL-12T	0.353
NCI-H1651	0.465
EPLC-272H	0.381
NCI-H1355	0.594
NCI-H3122	0.537
NCI-H1437	0.459
NCI-H1755	0.568
HCC-15	0.586
NCI-H1944	0.271
PC-14	0.642
EKVX	0.366
LC-2-ad	0.446

same assay, conditions: first compound 0.1 µM

Cell Line	relative viability
NCI-H358	0.117
NCI-H2405	0.702
HOP-62	0.372
LU99A	0.253
BEN	0.499
HARA	0.138
HCC-78	0.466
NCI-H322M	0.49
LCLC-97TM1	0.218
A-427	0.212
NCI-H441	0.643
NCI-H1734	0.266
NCI-H460	0.462
NCI-H2347	0.474
NCI-H1793	0.426
201T	0.945

Cell Line	relative viability
NCI-H1915	0.417
HCC-827	0.425
LXF-289	0.16
NCI-H23	0.334
NCI-H647	0.307
CAL-12T	0.222
EPLC-272H	0.33
NCI-H1355	0.53
NCI-H3122	0.352
NCI-H1755	0.565
HCC-15	0.333
NCI-H1944	0.244
PC-14	0.618
EKVX	0.332
LC-2-ad	0.469

same assay, conditions: first compound 0.3162 µM

Cell Line	relative viability
NCI-H358	0.103
NCI-H2405	0.549
HOP-62	0.284
LU99A	0.241
BEN	0.495
HCC-78	0.326
NCI-H322M	0.503
NCI-H441	0.678
NCI-H1734	0.209
NCI-H460	0.227
NCI-H2347	0.536
201T	0.847
NCI-H1915	0.312
HCC-827	0.411
LXF-289	0.179
NCI-H23	0.362
NCI-H647	0.262
CAL-12T	0.272
NCI-H1651	0.505
NCI-H1355	0.323
NCI-H3122	0.314
NCI-H1437	0.367
NCI-H1755	0.529
HCC-15	0.321
NCI-H1944	0.228
PC-14	0.293
EKVX	0.35
LC-2-ad	0.411

same assay, conditions: first compound 1 µM

Cell Line	relative viability
NCI-H358	0.0892
NCI-H2405	0.544
HOP-62	0.344
LU99A	0.272
BEN	0.498
HARA	0.189
HCC-78	0.453
NCI-H322M	0.443
LCLC-97TM1	0.208
A-427	0.212
NCI-H441	0.362
NCI-H1734	0.238
NCI-H460	0.0722
NCI-H2347	0.454
NCI-H1793	0.315
201T	0.925
NCI-H1915	0.426

Cell Line	relative viability
HCC-827	0.43
LXF-289	0.179
NCI-H23	0.568
NCI-H647	0.186
CAL-12T	0.174
NCI-H1651	0.106
EPLC-272H	0.477
NCI-H1355	0.548
NCI-H3122	0.262
NCI-H1437	0.366
NCI-H1755	0.467
HCC-15	0.176
NCI-H1944	0.248
PC-14	0.492
EKVX	0.378
LC-2-ad	0.364
